Measured values taken from US12286401B2, “Small molecules that sensitize HIV-1 infected cells to antibody dependent cellular cytotoxicity” (THE TRUSTEES OF THE UNIVERSITY OF PENNSYLVANIA, priority 2018, dated 2025).
Several values for one entry are separate records, joined by “and”; a condition that tells them apart may be missing. Equal values may be shown once. Entries after “also recorded” stand apart in the source; their conditions may differ.

Test system: HIV-1JR-FL EnvΔCT expressed at the surface of HOS cells
Experiment: Cell-based ELISA (CBE), 17b readout
Details: MCG analogs 50 μM; BNM-III-170 5 μM; 2G12 and DMSO normalized
Description: Detection of trimeric HIV-1 Env at the surface of HOS cells was performed by cell-based ELISA, as described in Desormeaux, “The highly conserved layer-3 component of the HIV-1 gp120 inner domain is critical for CD4-required conformational transitions,” J. Virol. 87:2549-2562; Alsahafi, “Effects of the I559P gp41 change on the conformation and function of the human immunodeficiency virus (HIV-1) membrane envelope glycoprotein trimer,” 2015, PLoS One 10:e0122111; and Veillette, “Conformational evaluation of HIV-1 trimeric envelope glycoproteins using a cell-based ELISA assay,” 2014, J. Vis. Exp., 91:51995. To enhance cell-surface expression of HIV-1 EnvRF a stop codon was introduced to replace the codon for Gly 711, truncating the cytoplasmic tail (ACT). Briefly, HOS cells were seeded in T-75 flasks (3×10^6 cells per flask) and transfected the next day with 22.5 μg of Env-expressing plasmids (wild-type and mutants S375W, S375T, H66A, A582T/L587A, etc) using the standard polyethylenimine (PEI, Polyscience Inc, PA, USA) transfection method. Twenty-four hours after transfection, cells were plated in 384-wells plates (2×10^4 cells per well). One day later, cells were washed twice with blocking buffer (10 mg/mL non-fat dry milk, 1.8 mM CaCl2), 1 mM MgCl2, 25 mM Tris, pH 7.5 and 140 mM NaCl) and then incubated for 30 minutes at room temperature with different concentrations of MCG analogs or equivalent volume of vehicle (DMSO). Cells were then incubated for an additional 1 h at room temperature with anti-HIV-1 Env monoclonal antibodies recognizing CD4-induced gp120 epitopes (17b, A32), CD4-binding site gp120 epitopes (VRC03, VRC01, F105, and b12), gp120 V3 glycans (19b, PGT126, PGT122, and 10.1074), gp120 outer domain (2G12), and gp120-gp41 interface (PGT151 and VRC34) epitopes. All ligands were diluted in blocking buffer. A horseradish peroxidase-conjugated antibody specific for the Fc region of human or mouse IgG (Pierce) was then incubated with the samples for 45 minutes at room temperature. For all conditions, cells were washed 5 times with blocking buffer and 5 times with washing buffer (1.8 mM CaCl2), 1 mM MgCl2, 25 mM Tris, pH 7.5 and 140 mM NaCl). HRP enzyme activity was determined after the addition of 20 μl per well of a 1:1 mix of Western Lightning oxidizing and luminol reagents (Perkin Elmer Life Sciences). Light emission was measured with an LB 941 TriStar luminometer (Berthold Technologies) and analysis with Graph Pad software.
The data of Table 2 is given as the fold over BNM-III-170 (5 μM) of Cell-Based ELISA with MCG Analogs (50 μM)—17b readout, 2G12 and DMSO normalized.
To identify molecules able to expose vulnerable Env epitopes, a cell-based ELISA (CBE) assay was adapted, capable of measuring conformational changes of membrane-bound trimeric Env as described in Veillette, 2014, J. Vis. Exp. doi:10.3791/51995:51995; Haim, 2011, PLoS Pathog 7:e1002101, into a high-throughput screening (HTS) platform (FIG. 10A). Briefly, the cytoplasmic-tail deleted HIV-1JR-FL Tier-2/3 Env was expressed on the surface of HOS cells in a 384-well-plate format. The cytoplasmic tail of Env was deleted to enhance Env expression at the cell surface and therefore enhance the sensitivity of the CBE assay. See, Veilette and Haim, 2009, PLoS Pathog 5:e100036. Small molecules or, as a positive control, soluble (sCD4) were added to expose the HIV-1JR-FL EnvΔCT epitope that can be recognized by the CD4i antibody 17b. See, Wyatt, 1995, J. Virol. 69:5723-5733; Rizzuto, 1998, Science 280:1949-1953.
17b binding was detected by a horseradish peroxidase-conjugated (HRP) second antibody, and HRP enzyme activity was measured by Western Lightning oxidizing and luminal reagents. 17b binding in the presence of sCD4 was set as the control (FIG. 10B, blue dots), small molecules that enhanced 17b binding above 25% of the one induced by sCD4 were retested in quadruplicate and only one molecule (UM0059920) was deemed a true positive (FIG. 10B, red dots). […]

| SMILES | Fold over BNM-III-170 - 17b binding (±0.05) |
| --- | --- |
| CS(=O)(=O)N1CCC[C@H](C(=O)Nc2ccc(C(F)(F)F)c(F)c2)C1 [(S)-MCG-IV-024-A02] | 0.38 fold |
| CCCNC(=N)N1CCC[C@H](C(=O)Nc2ccc(Cl)c(F)c2)C1 [(S)-MCG-IV-053-A05] | 0.85 fold |
| NCCNC(=O)N1C[C@H](N)C[C@H](C(=O)Nc2ccc(Cl)c(F)c2)C1 [(3R,5S)-MCG-IV-273] | 0.06 fold |
| NCCOC(=O)N1CCC[C@H](C(=O)Nc2ccc(Cl)c(F)c2)C1 [(S)-MCG-IV-267] | 0.30 fold |
| CC(C)COC(=O)N1CCC[C@H](C(=O)Nc2ccc(Cl)c(F)c2)C1 [(S)-MCG-IV-061] | 0.62 fold |
| CC(C)CNC(=O)N1CCC[C@H](C(=O)Nc2ccc(C(F)(F)F)c(F)c2)C1 [(S)-MCG-IV-063-A06] | 0.36 fold |
| COC(=O)N1CCC[C@H](C(=O)Nc2ccc(C(F)(F)F)c(F)c2)C1 [(S)-MCG-IV-050-A01] | 0.44 fold |
| CCNC(=O)N1CCC[C@H](C(=O)Nc2ccc(C(F)(F)F)c(F)c2)C1 [(S)-MCG-IV-063-A02] | 0.35 fold |
| CCCOC(=O)N1CCC[C@H](C(=O)Nc2ccc(Cl)c(F)c2)C1 [(S)-MCG-IV-058] | 0.51 fold |
| CC(C)CNC(=O)N1CCC[C@H](C(=O)Nc2ccc(Cl)c(F)c2)C1 [(S)-MCG-IV-031-A06] | 0.42 fold |
| CCCNC(=O)N1C[C@H](N)C[C@H](C(=O)Nc2ccc(Cl)c(F)c2)C1 [(3R,5S)-MCG-IV-226] | 0.11 fold |
| CN(C)C(=O)N1CCC[C@H](C(=O)Nc2ccc(C(F)(F)F)c(F)c2)C1 [(S)-MCG-IV-063-A03] | 0.48 fold |
| CS(=O)(=O)N1CCC[C@@H](C(=O)Nc2ccc(Cl)cc2)C1 [(R)-MCG-II-156] | 0.08 fold |
| CC(C)CNC(=N)N1CCC[C@H](C(=O)Nc2ccc(Cl)c(F)c2)C1 [(S)-MCG-IV-053-A06] | 0.60 fold |
| CCOC(=O)N1CCC[C@H](C(=O)Nc2ccc(C(F)(F)F)c(F)c2)C1 [(S)-MCG-IV-050-A02] | 0.49 fold |
| CS(=O)(=O)N1CCC[C@H](C(=O)Nc2ccc(Cl)cc2)C1 [(S)-MCG-II-153] | 0.20 fold and 0.31 fold |
| CCS(=O)(=O)N1CCC[C@H](C(=O)Nc2ccc(C(F)(F)F)c(F)c2)C1 [(S)-MCG-IV-024-B02] | 0.36 fold |
| NCCOC(=O)N1C[C@H](N)C[C@H](C(=O)Nc2ccc(Cl)c(F)c2)C1 [(3R,5S)-MCG-IV-272] | 0.07 fold |
| CCCNC(=O)N1CCC[C@H](C(=O)Nc2ccc(C(F)(F)F)c(F)c2)C1 [(S)-MCG-IV-063-A05] | 0.45 fold |
| NCCCNC(=O)N1CCC[C@H](C(=O)Nc2ccc(Cl)c(F)c2)C1 [(S)-MCG-IV-211] | 0.25 fold |
| CNC(=N)N1CCC[C@H](C(=O)Nc2ccc(Cl)c(F)c2)C1 [(S)-MCG-IV-053-A01] | 0.42 fold |
| CCN(C)C(=O)N1CCC[C@H](C(=O)Nc2ccc(Cl)c(F)c2)C1 [(S)-MCG-IV-031-A04] | 0.54 fold |
| CN(C)C(=O)N1CCC[C@H](C(=O)Nc2ccc(Cl)c(F)c2)C1 [(S)-MCG-IV-031-A03] | 0.71 fold |
| CCNC(=O)N1CCC[C@H](C(=O)Nc2ccc(Cl)c(F)c2)C1 [(S)-MCG-IV-031-A02] | 0.37 fold |
| CNC(=O)N1CCC[C@H](C(=O)Nc2ccc(C(F)(F)F)c(F)c2)C1 [(S)-MCG-IV-063-A01] | 0.33 fold |
| NCCCNC(=O)N1C[C@H](N)C[C@H](C(=O)Nc2ccc(Cl)c(F)c2)C1 [(3R,5S)-MCG-IV-274] | 0.06 fold |

Same assay, conditions: high-throughput screen follow-up; sCD4 as control; result in words

| SMILES | 17b binding in the CBE assay (screening hit and enantiomers) |
| --- | --- |
| CS(=O)(=O)N1CCC[C@@H](C(=O)Nc2ccc(Cl)cc2)C1 [(R)-MCG-II-156] | not |
| CS(=O)(=O)N1CCC[C@H](C(=O)Nc2ccc(Cl)cc2)C1 [(S)-MCG-II-153] | enhanced 17b binding to similar levels as UM0059920; also recorded: active enantiomer |
